Measurements from patent publication US10081631B2, “2-(1H-indazol-3-yl)-1H-imidazo[4,5-C]pyridine and therapeutic uses thereof” (Samumed, LLC, priority 2014, dated 2018).

Key:
[1] = test system: Wnt activity (Sp5-Luc reporter, SW480 colon carcinoma cells); test: Screening assay for Wnt activity: Sp5-Luc reporter gene assay in SW480 cells; assay type: cell-based; conditions: Homo sapiens, 42 h incubation, luminescence
How it was run: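 IC50 values come from variable-slope four-parameter fits of luciferase signal normalized to DMSO wells. Stable Sp5-Luc reporter SW480 colon carcinoma cells were exposed to compounds in a 3-fold dilution series (source plates from 10 mM stock) for forty-two hours at 37 °C.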

[2] = test system: primary human fibroblasts derived from IPF patients (LL29 cells); test: Inhibition of fibrosis: TGF-β1-treated primary human fibroblasts from IPF patients (LL29), αSMA staining; assay type: cell-based; conditions: Fibroblast, 96 h, TGF-β1 20 ng/mL, 4 days, % αSMA-positive cells
How it was run: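 […] (0.1% DMSO) on LL29 cells in F12 with 1% FBS, with TGF-β1 (20 ng/mL) added 1 h after plating; 4 days at 37 °C. SYTOX-positive dead cells were excluded and the % αSMA-positive cells was imaged, normalized to TGF-β1/DMSO wells, triplicates; EC50 by non-linear regression.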

SMILES	IC50 [1] [nM]	EC50 [2] [nM]
CS(=O)(=O)NCc1cc(F)cc(-c2nccc3[nH]c(-c4n[nH]c5ccc(-c6cncc(CNCc7ccccc7)c6)cc45)nc23)c1 [Compound 413, N-(3-(2-(5-(5-((Benzylamino)methyl)pyridin-3-yl)-1H-indazol-3-yl)-1H-imidazo[4,5-c]pyridin-4-yl)-5-fluorobenzyl)methanesulfonamide]	187	9
CS(=O)(=O)NCc1cc(F)cc(-c2nccc3[nH]c(-c4n[nH]c5ccc(-c6cncnc6)cc45)nc23)c1 [Compound 416, N-(3-Fluoro-5-(2-(5-(pyrimidin-5-yl)-1H-indazol-3-yl)-1H-imidazo[4,5-c]pyridin-4-yl)benzyl)methanesulfonamide]	< 1	27
CCNCc1cncc(-c2ccc3[nH]nc(-c4nc5c(-c6cc(F)cc(NCCN(C)C)c6)nccc5[nH]4)c3c2)c1 [Compound 422, N^1-(3-(2-(5-(5-((Ethylamino)methyl)pyridin-3-yl)-1H-indazol-3-yl)-1H-imidazo[4,5-c]pyridin-4-yl)-5-fluorophenyl)-N^2,N^2-dimethylethane-1,2-diamine]	108	108
CC(C)Nc1cncc(-c2ccc3[nH]nc(-c4nc5c(-c6cc(F)cc(NCCN(C)C)c6)nccc5[nH]4)c3c2)c1 [Compound 428, N^1-(3-Fluoro-5-(2-(5-(5-(isopropylamino)pyridin-3-yl)-1H-indazol-3-yl)-1H-imidazo[4,5-c]pyridin-4-yl)phenyl)-N^2,N^2-dimethylethane-1,2-diamine]	6	9
CCCCC(=O)Nc1cncc(-c2ccc3[nH]nc(-c4nc5c(-c6cc(F)cc(NCCN(C)C)c6)nccc5[nH]4)c3c2)c1 [Compound 434, N-(5-(3-(4-(3-((2-(Dimethylamino)ethyl)amino)-5-fluorophenyl)-1H-imidazo[4,5-c]pyridin-2-yl)-1H-indazol-5-yl)pyridin-3-yl)pentanamide]	16	459
CN(C)CCNc1cc(F)cc(-c2nccc3[nH]c(-c4n[nH]c5ccc(-c6cncc(CNCC7CCCC7)c6)cc45)nc23)c1 [Compound 440, N^1-(3-(2-(5-(5-(((Cyclopentylmethyl)amino)methyl)pyridin-3-yl)-1H-indazol-3-yl)-1H-imidazo[4,5-c]pyridin-4-yl)-5-fluorophenyl)-N^2,N^2-dimethylethane-1,2-diamine]	539	9
Fc1cccc(-c2nccc3[nH]c(-c4n[nH]c5ccc(C6CCNCC6)cc45)nc23)c1 [Compound 1769, 4-(3-Fluorophenyl)-2-(5-(piperidin-4-yl)-1H-indazol-3-yl)-1H-imidazo[4,5-c]pyridine]	2340	670
Fc1cccc(-c2nccc3[nH]c(-c4n[nH]c5ccc(C6=CCNCC6)cc45)nc23)c1 [Compound 1770, 4-(3-Fluorophenyl)-2-(5-(1,2,3,6-tetrahydropyridin-4-yl)-1H-indazol-3-yl)-1H-imidazo[4,5-c]pyridine]	658	9990
Fc1cccc(-c2nccc3[nH]c(-c4n[nH]c5ccc(-c6cn[nH]c6)cc45)nc23)c1 [Compound 1771, 2-(5-(1H-Pyrazol-4-yl)-1H-indazol-3-yl)-4-(3-fluorophenyl)-1H-imidazo[4,5-c]pyridine]	4	9990
Cn1cc(-c2ccc3[nH]nc(-c4nc5c(-c6cccc(F)c6)nccc5[nH]4)c3c2)cn1 [Compound 1772, 4-(3-Fluorophenyl)-2-(5-(1-methyl-1H-pyrazol-4-yl)-1H-indazol-3-yl)-1H-imidazo[4,5-c]pyridine]	11	9990
NC1CN(c2cncc(-c3ccc4[nH]nc(-c5nc6c(-c7cccc(F)c7)nccc6[nH]5)c4c3)n2)C1 [Compound 1774, 1-(6-(3-(4-(3-Fluorophenyl)-1H-imidazo[4,5-c]pyridin-2-yl)-1H-indazol-5-yl)pyrazin-2-yl)azetidin-3-amine]	171	102
Fc1cccc(-c2nccc3[nH]c(-c4n[nH]c5ccc(-c6cncc(OC7CCCCC7)c6)cc45)nc23)c1 [Compound 1775, 2-(5-(5-(Cyclohexyloxy)pyridin-3-yl)-1H-indazol-3-yl)-4-(3-fluorophenyl)-1H-imidazo[4,5-c]pyridine]	252	9
Fc1cccc(-c2nccc3[nH]c(-c4n[nH]c5ccc(-c6cncc(OC7CCNCC7)c6)cc45)nc23)c1 [Compound 1776, 4-(3-Fluorophenyl)-2-(5-(5-(piperidin-4-yloxy)pyridin-3-yl)-1H-indazol-3-yl)-1H-imidazo[4,5-c]pyridine]	778	38
O=C(CC1CCNCC1)Nc1cncc(-c2ccc3[nH]nc(-c4nc5c(-c6cccc(F)c6)nccc5[nH]4)c3c2)c1 [Compound 1777, N-(5-(3-(4-(3-Fluorophenyl)-1H-imidazo[4,5-c]pyridin-2-yl)-1H-indazol-5-yl)pyridin-3-yl)-2-(piperidin-4-yl)acetamide]	243	107
CN(C)CCOc1cncc(-c2ccc3[nH]nc(-c4nc5c(-c6cccc(F)c6)nccc5[nH]4)c3c2)c1 [Compound 1779, 2-((5-(3-(4-(3-Fluorophenyl)-1H-imidazo[4,5-c]pyridin-2-yl)-1H-indazol-5-yl)pyridin-3-yl)oxy)-N,N-dimethylethan-1-amine]	192	41
COc1cncc(-c2ccc3[nH]nc(-c4nc5c(-c6cccc(F)c6)nccc5[nH]4)c3c2)c1 [Compound 1780, 4-(3-Fluorophenyl)-2-(5-(5-methoxypyridin-3-yl)-1H-indazol-3-yl)-1H-imidazo[4,5-c]pyridine]	25	19
Oc1cncc(-c2ccc3[nH]nc(-c4nc5c(-c6cccc(F)c6)nccc5[nH]4)c3c2)c1 [Compound 1781, 5-(3-(4-(3-Fluorophenyl)-1H-imidazo[4,5-c]pyridin-2-yl)-1H-indazol-5-yl)pyridin-3-ol]	6	79
Fc1cccc(-c2nccc3[nH]c(-c4n[nH]c5ccc(-c6ccncc6)cc45)nc23)c1 [Compound 1784, 4-(3-Fluorophenyl)-2-(5-(pyridin-4-yl)-1H-indazol-3-yl)-1H-imidazo[4,5-c]pyridine]	> 10000	9990
Fc1cccc(-c2nccc3[nH]c(-c4n[nH]c5ccc(-c6ccccn6)cc45)nc23)c1 [Compound 1785, 4-(3-Fluorophenyl)-2-(5-(pyridin-2-yl)-1H-indazol-3-yl)-1H-imidazo[4,5-c]pyridine]	633	9
Fc1cccc(-c2nccc3[nH]c(-c4n[nH]c5ccc(-c6cnccn6)cc45)nc23)c1 [Compound 1786, 4-(3-Fluorophenyl)-2-(5-(pyrazin-2-yl)-1H-indazol-3-yl)-1H-imidazo[4,5-c]pyridine]	35	9
CN(C)CC(=O)Nc1cncc(-c2ccc3[nH]nc(-c4nc5c(-c6cccc(F)c6)nccc5[nH]4)c3c2)c1 [Compound 2251, 2-(Dimethylamino)-N-(5-(3-(4-(3-fluorophenyl)-1H-imidazo[4,5-c]pyridin-2-yl)-1H-indazol-5-yl)pyridin-3-yl)acetamide]	124	75
